What is called MIC is the smallest concentration in the dilution series that meets the test's criterion for growth inhibition.

One series deals with LVS. The settings on record: standard conditions; cited from earlier work.
The next series relates to NIH B38. As to conditions: cited from earlier work.
The next series concerns F. novicida. The format is cell-based, Francisella novicida. The settings on record: for MIC: pH 7.1.
The subject of series [1] is Galleria mellonella (waxworm) larvae. The settings on record: in vivo.
A further series has as its system Francisella philomiragia. The format is cell-based.
Series [2] relates to Francisella tularensis holarctica Live Vaccine Strain. As to conditions: cited from earlier work.
The next series relates to F. tularensis LVS. It is filed as cell-based, Francisella tularensis holarctica Live Vaccine Strain. As to conditions: for MIC: pH 7.1.
Series [3] deals with Francisella tularensis tularensis Schu4. As to conditions: cited from earlier work.
Series [4] concerns Francisella novicida. The settings on record: cited from earlier work.
Series [5] deals with Francisella novicida. The settings on record: cited from earlier work. This is another data set of the same source.

Converted amounts (≈) assume the structure as drawn. Bounds are passed on as bounds.

On to `[H]/N=C(/N)N[C@H]1[C@H](O)[C@@H](O)[C@H](O[C@@H]2O[C@@H](C)[C@](O)(C=O)[C@H]2O[C@@H]2O[C@@H](CO)[C@H](O)[C@@H](O)[C@@H]2NC)[C@@H](N/C(N)=N\[H])[C@@H]1O` [Streptomycin, D-Streptamine, O-2-deoxy-2-(methylamino)-α-L-glucopyranosyl-(1->2)-O-5-deoxy-3-C-formyl-α-L-lyxofuranosyl-(1->4)-N1,N3-bis(aminoiminomethyl)-], for which the MIC in the series on LVS is 0.38 µg/mL (≈ 0.653 µM); in the series with NIH B38, 0.25 µg/mL (≈ 0.43 µM).
As for Colistin, the figures for the “This study Colistin” value in the series with F. novicida, in the series with Francisella philomiragia and with F. tularensis LVS were ~1024, > 1024 and > 1024, respectively. Besides, the results for the MIC against F. novicida and with F. tularensis LVS were 1024 µg/mL and >1024 µg/mL, respectively. Besides, the “Toxicity, survival of waxworms” value in series [1] is on record as “killed the waxworms”. For the same molecule, in [2], the “Kirby Bauer Colistin” value is recorded as 0 mm.
For the molecule Polymyxin B, the entries for the “Kirby Bauer Polymyxin B” value (in series [3]; with Francisella novicida [4]) were 10 mm and 19 mm, respectively. Besides, the “This study Polymyxin B” value with F. novicida is reported as 256; with Francisella philomiragia it was 1024; in the series on F. tularensis LVS, 256. In addition, the MIC is 256 µg/mL with F. novicida, 38 µg/mL in the series on Francisella novicida [5] and 256 µg/mL against F. tularensis LVS. Besides, the “Toxicity, survival of waxworms” value in series [1] was “killed the waxworms”.

The values are drawn from US20230193192A1 (priority 2021, published 2023).
